The target of series [1] is T1, human TSPO (Homo sapiens, UniProt P30536).
T1 construct: aliquots of U87MG cell membranes (20 μg of proteins) were incubated with [^3H]PK 11195 (1.5 nM); endogenous in cells; host or cells: U87MG human glioblastoma cell membranes
Description: Equilibrium [3H]PK11195 radioligand binding assay in U87MG cell membranes. As for the experimental part:
Equilibrium radioligand binding assays were performed essentially as previously described. […] Samples were rapidly filtered under vacuum through GF/C glass fiber filters.

The target in series [2] is T1, human TSPO. Description: TSPO association/dissociation and competition kinetics with [3H]PK11195. The format is binding. An excerpt: Association and dissociation rate constants for [^3H]
For competition kinetics, the [^3H]

Series [3] addresses T2, MDM2/p53 complex (Homo sapiens, UniProt Q00987).
T2 construct: endogenous in cells; host or cells: crude lysates of U87MG human glioblastoma cells
As to the kind of experiment: Dissociation of native MDM2/p53 complex, sandwich immuno-enzymatic assay on U87MG cell lysates. It counts as biochemical. As for the experimental part: Cells were washed twice in ice-cold phosphate-buffered saline, collected by centrifugation, and suspended in lysis buffer (20 mM Tris HCl, 137 mM NaCl, 10% glycerol, 1% NONIDET40, 2 mM EDTA, pH 8) containing 1% of the Protease inhibitor Cocktail (Sigma Aldrich, Milan, Italy). 96-wells were pre-coated with a mouse full-length anti-MDM2 antibody (sc-965, Santa Cruz Biotechnology, 1:50 in 0.05% Poly-L-Ornithine) overnight at room temperature. Cell lysates (20 μg in a final volume of 100 μl) were pre-incubated with DMSO (control), or different compound concentration for 10 min at room temperature, and then transferred to the pre-coated wells for 60 min. After three quick washes with PBS/Tween 0.05% to remove unbound MDM2, each well was incubated for 15 min with 1% BSA, to block nonspecific sites, and then for 1.5 h at room temperature with a rabbit primary anti-p53 antibody (sc-6243, Santa Cruz Biotechnology, 1:250). Then, wells were washed and incubated for 1 h with an anti-rabbit HRP-conjugate antibody, and washed again. […] Blanks were obtained processing cell lysates in the absence of the primary anti-p53 antibody.

Series [4] has as its target T2, MDM2/p53 complex. Description: Association and dissociation kinetics towards MDM2 in U87MG cell lysates. It counts as biochemical. To be noted: lysates treated at ten-fold IC50, diluted 1:20, 0-180 min.
Description: Following incubation, cell lysates were captured on wells pre-coated with MDM2 antibody for an additional 60 min.
Dissociation was initiated by the addition of 20 volumes of cold buffer, and lysates were further incubated at 4°C for the indicated times (0-180 min). Following incubation, 200 μl of the mixture were captured on wells pre-coated with MDM2 antibody for an additional 60 min.
The target of a further series is T3, p53/MDM2 complex (Homo sapiens, UniProt Q00987).
T3 construct: endogenous in cells; host or cells: U87MG human glioblastoma cells, treated whole and then lysed
T3 sequence (Q00987 whole entry, one chain of several): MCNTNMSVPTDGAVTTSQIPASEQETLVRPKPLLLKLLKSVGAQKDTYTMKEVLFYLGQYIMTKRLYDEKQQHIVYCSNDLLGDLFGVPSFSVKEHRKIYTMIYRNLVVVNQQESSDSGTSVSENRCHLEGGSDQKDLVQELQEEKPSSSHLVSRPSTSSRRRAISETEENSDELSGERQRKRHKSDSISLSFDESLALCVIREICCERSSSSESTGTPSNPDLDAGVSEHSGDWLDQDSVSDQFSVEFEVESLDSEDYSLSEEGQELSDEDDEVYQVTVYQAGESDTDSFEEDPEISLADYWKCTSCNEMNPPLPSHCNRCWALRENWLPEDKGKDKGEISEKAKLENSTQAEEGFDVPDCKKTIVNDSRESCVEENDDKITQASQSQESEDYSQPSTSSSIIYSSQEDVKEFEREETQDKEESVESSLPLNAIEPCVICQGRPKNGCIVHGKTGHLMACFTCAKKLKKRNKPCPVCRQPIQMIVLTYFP
Description: Levels of p53/MDM2 complex in U87MG whole cells (ELISA). The format is cell-based. The method, then:
(§1) U87MG cells were treated with DMSO (control), EB148 or EB54 for different times. When indicated, after 8 h of incubation, cells were washed twice with fresh saline and cultured in drug-free medium for an additional 24 h. At the end of the treatment period, the cells were collected, and suspended in lysis buffer containing 1% of the Protease inhibitor Cocktail.

The subject of another series is p53 protein. As to the kind of experiment: p53 protein accumulation by western blotting. The format is cell-based, human. As for the experimental part: U87MG were treated with DMSO (control), EB148 or EB54 for 16 h. […] […] Glyceraldehyde-3-phosphate dehydrogenase (GAPDH) was the loading control ([…], Sigma Aldrich, Milan, Italy, 1:5000). The primary antibodies were detected using the appropriate peroxidase-conjugated secondary antibodies, which were then detected using a chemioluminescent substrate (ECL, Perkin Elmer). Densitometric analysis of the immunoreactive bands was performed using Image J Software.
For orientation: In western blotting, separated proteins are transferred to a membrane and probed.

Another series relates to ERK1/2. As to the kind of experiment: ERK1/2 phosphorylation ELISA in U87MG cells. It counts as cell-based, human. The method, then: Figure 10 ERK phosphorylation and levels of ERK/MDM2 complex in U87MG cells A. U87MG cells were treated with DMSO (control), 1 μΜ EB148 or 1 μΜ EB54 for the indicated times; in some experiments, after 2 h of treatment the medium was replaced by fresh medium not containing drugs for an additional 2 h. At the end of the treatment period the levels of ERK 1/2 phosphorylation were evaluated using ELISA kits, as described in the Methods section. The data are expressed as the percentage of phosphorylated ERK1/2 versus untreated cells (control), which were set at 100%. Data are the mean values ± SEM of three independent experiments performed in triplicate. Analysis of significant differences in mean ERK/MDM2 complex levels was performed using one-way ANOVA with a Bonferroni post-test: * p< 0.05, ** p< 0.01, *** p<0.001 vs. control. […] C. U87MG cells were treated with DMSO (control), 1 μΜ EB148 or 1 μΜ EB54 for the indicated times; in some experiments, after 8 h of treatment, the medium was replaced by fresh medium not containing drugs for an additional 24 h. At the end of the treatment period, U87MG cells were collected and suspended in lysis buffer. Equal amounts of cell lysates were captured on wells pre-coated with MDM2 antibody. After extensive washing, the levels of the ERK/MDM2 complex were quantified using an antibody specific for ERKs, and subsequently an HRP-conjugated antibody and a TMB substrate kit. Data are expressed as percentage of control set to 100%, and represent the mean ± SEM of three independent experiments. The significance of the differences was determined with a one-way ANOVA with Bonferroni post-test: * p<0.05, ** p<0.01, *** p<0.001 vs. control.
(ELISA stands for enzyme-linked immunosorbent assay.)

For the next series, the system named is ERK/MDM2 complex. As to the kind of experiment: Levels of ERK/MDM2 complex in U87MG cells (ELISA). It counts as cell-based, human. As for the experimental part: as §1
For a further series, the system named is U87MG cells. As to the kind of experiment: U87MG cell viability, trypan blue exclusion test. The format is cell-based, human. To be noted: 72 h, maximal effect at 100 μM. As for the experimental part:
The effects of compound treatment on U87MG cell viability and proliferation were evaluated by Trypan blue exclusion assays and MTS assay, respectively. U87MG cells were treated with EB148 or EB54 for 72 h. Following treatment, harvested cells were mixed with an equal volume of 0.4% trypan blue dye. For quantization of cell viability, blue and bright cells were counted, and viability was calculated as the number of living (bright) and dead (blue) cells in each well. To establish the effect of MDM2 inhibitors on cell proliferation, cells were treated for 72 h with different concentrations of each compound (0.1 nM–100 μM) for 72 h, and then MTS assay was performed according to the manufacturer's instructions.

The subject of series [5] is mesenchymal Stem Cells (MSCs) isolated from human bone marrow. Description: Toxicity in non-tumour cells, MSC proliferation by MTS assay. It counts as cell-based. The conditions noted are these: 72 h; EB54 at 10 μM; EB148 up to the highest concentration tested. The method, then: […]. At the end of treatments, cell proliferation was measured by MTS assay.
(Formazan colour is commonly taken as a measure of viable cells.)

T1 sequence (P30536 whole entry): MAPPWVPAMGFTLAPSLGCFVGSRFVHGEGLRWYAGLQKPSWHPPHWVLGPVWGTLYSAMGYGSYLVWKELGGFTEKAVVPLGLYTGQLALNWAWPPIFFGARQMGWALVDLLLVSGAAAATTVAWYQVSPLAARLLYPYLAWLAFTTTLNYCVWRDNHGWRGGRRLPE
T2 sequence (Q00987 whole entry, one chain of several): as the sequence (Q00987 whole entry, one chain of several) above

Usually Ki stands for the dissociation constant of the complex between target and ligand, obtained from inhibition or displacement. Higher therefore signals lower affinity. By koff is commonly meant a measure of how fast the partners let go of each other. The low end stands for a long-lived complex, the high end for a short-lived complex. For orientation: kon means the rate constant with which the complex forms. As a reminder, the Kd is the free concentration of one partner at which half of the binding sites on the other are occupied at equilibrium, for simple one-to-one binding. As usually defined, the IC50 is the concentration at which inhibition is half-maximal. On human TSPO [1], `CCOC(=O)[C@@H](Cc1ccccc1)NC(=O)[C@H](CC(C)C)NC(=O)C(=O)c1c(-c2ccccc2)[nH]c2ccc(N=C=S)cc12` [EB148] displayed a Ki of 0.199 ± 0.018 µM. On human TSPO [2], this compound showed a koff of 8.01e-05 s⁻¹ and an association rate constant (kon) of 5350 M⁻¹ s⁻¹. Moreover, the Kd at human TSPO [2] (calculated as ratio of estimated koff and kon) is 0.15 µM. At MDM2/p53 complex [3], this compound registered an IC50 of 0.00681 ± 0.00079 µM. For the same compound, the “activity in inhibiting p53-MDM2 complex after sample dilution” value at MDM2/p53 complex [4] is “maintained unchanged”. For the same compound, at p53/MDM2 complex (1 μM for 8 h, then 24 h wash-out), the “p53-MDM2 complex formation after 24 h cell wash-out” value is given as “significantly lower than in the control”. Besides, the “p53-MDM2 complex in whole cells” value on p53/MDM2 complex (1 μM, 8 h) is given as “inhibited”. The “p53 protein levels after wash-out” value in the series on p53 protein (1 μM for 16 h, then wash-out of 16 h) was “maintained high p53 levels”. In addition, in the series with p53 protein (1 μM, 16 h), the p53 protein levels entry is “slight but significant increase”. Further, the “ERK activation after cell wash-out” value in the series with ERK1/2 (1 μM for 2 h, then drug-free medium for 2 h) is “continued to significantly activate”. Further, the ERK1/2 phosphorylation entry with ERK1/2 (1 μM, up to 8 h) is “significant ERK phosphorylation”. Besides, the “effect of blocking p53 on compound-mediated ERK1/2 activation” value with ERK1/2 (pifithrin-β 1 μM 30 min, then compound 1 μM 2 h) was “completely impaired”. The “ERK/MDM2 association after cell wash-out” value in the series on ERK/MDM2 complex (1 μM for 8 h, then wash-out for 24 h) was “remained significant”. In addition, the ERK/MDM2 complex formation entry in the series with ERK/MDM2 complex (1 μM, 8 and 24 h) is “significant and marked induction”. Besides, the “total number of living cells” value with U87MG cells was “reduced the total number of living cells”. Moreover, the MSC viability/proliferation result in series [5] is reported as “did not affect MSC proliferation”.
